# Assay results published in patent publication US11882828B2, “Mosquito vector control compositions, methods and products utilizing same” (priority 2015, dated 2024).
# What was measured:
# [1] = test system: Aedes aegypti (Yellow fever mosquito); experiment: whole plant or invertebrate; conditions: Aedes aegypti
# Experimental: […] Once the deposits were dry, five non-blood fed adult female Aedes aegypti (between two to five days old) were added to each well, and sustained with a 10% sucrose solution in a cotton wool plug. Assessment of the knockdown after 1 hour, and mortality after 48 hours was carried out.
# (§1) In case of multiple tests, the mean value is reported.
# [2] = test system: Ae. aegypti Caymon; experiment: Example B4: cross resistance study, 6-well plate; format: in vivo
# Experimental: (§2) In each study, a set of plates were infested with a known insecticide susceptible strain of mosquitoes from the same genera as the resistant strains.
# (§3) Assessment of the knockdown after 60 minutes and mortality after 24 hours was carried out. Each treatment was replicated a minimum of four times, with the mean knockdown or mortality recorded.
# (§4) A comparison of the knockdown and mortality of the resistant strain of mosquitoes was made to that of the susceptible to identify evidence of cross resistance.
# [3] = test system: An. Gambiae Kisumu sus; experiment: Example B4: cross resistance study, 6-well plate; format: in vivo
# Experimental: as §2, §3, §4
# [4] = test system: Ae. Aegypti New Orleans; experiment: Example B4: cross resistance study, 6-well plate; format: in vivo
# Experimental: as §2, §3, §4
# [5] = test system: An. Arabiensis Ndjamina; experiment: Example B4: cross resistance study, 6-well plate; format: in vivo
# Experimental: as §2, §3, §4
# [6] = test system: An. Gambiae Kisumu rdl; experiment: Example B4: cross resistance study, 6-well plate; format: in vivo
# Experimental: as §2, §3, §4
# [7] = test system: An. Arabiensis Moz sus; experiment: Example B4: cross resistance study, 6-well plate; format: in vivo
# Experimental: as §2, §3, §4
# [8] = test system: An. Gambiae Tiassalé; experiment: Example B4: cross resistance study, 6-well plate; format: in vivo
# Experimental: as §2, §3, §4
# [9] = test system: An. stephensi; experiment: Example B4: cross resistance study, 6-well plate; format: in vivo
# Experimental: as §2, §3, §4
# [10] = test system: Anopheles stephensi; experiment: Example B7: evaluation of insecticide impregnated polymer surfaces; format: in vivo; conditions: AI content 2 wt %, after one hour
# Source text: (§5) Preparation of polymeric sheets: Certain methoxyacrylate were Impregnated into three polymers: LDPE (low density polyethylene), HDPE (high density polyethylene) and PP (polypropylene) in different concentrations by mixing the respective polymer with a compound at high temperatures and the resultant polymeric material were then mould into thin discs or plaques.
# (§6) Twenty four hours prior to the relevant assessment intervals, three to five day old non-blood fed adult mosquitoes were taken from the culture and lightly anaesthetised with carbon dioxide. Ten females were selected and placed in a 250 ml plastic cup, retained with a net lid, provided with a 10% sucrose solution soaked in a cotton wool bung and held under culturing environmental conditions.
# (§7) After twenty four hours, impregnated polymer sheets (measuring about 150 mm in diameter and about 0.1 mm in thickness) were removed from storage and wrapped around the glazed side of an 11 cm ceramic tile and held in place with an elastic band. A cup of the pre-selected mosquitoes were again lightly anaesthetised with carbon dioxide and transferred from the holding cup to the base of a 9 cm plastic Petri dish. The relevant impregnated polymer sheet was placed over the Petri dish and held in place with an elastic band. Once the mosquitoes had recovered from the anaesthetic, ca. 1 minute, the impregnated polymer sheet was placed on a holding rack, such that treated side was at an angle of […] to the horizontal.
# (§8) After one hour an assessment of mosquito knockdown was made. A mosquito was said to be knocked down if it was unable to right itself once it had fallen over. The mosquitoes were lightly anaesthetised again, and removed from the Petri dish exposure chamber and returned to the holding cups. The mosquitoes were supplied with a 10% sucrose solution soaked in a cotton wool bung and held under culturing environmental conditions. An assessment of mortality was made 24 hours after exposure. A mosquito was said to be dead if it is unable to right itself once it had fallen over.
# [11] = test system: Aedes aegypti; experiment: as above; format: in vivo; conditions: AI content 2 wt %, polymer 4 to 6 weeks old, after one hour
# Source text: as §5, §6, §7, §8
# [12] = test system: An. Gambiae Kisumu sus; experiment: Example B5: bottle based cross resistance study (CDC bottle assay); format: in vivo
# Experimental: (§9) Based on the “CDC bottle assay” (described at http://www.cdc.gov/malaria/resources/pdf/fsp/ir_manual/ir_cdc_bioassay_en.pdf) 1 ml of ethanol containing a test compound at a defined concentration was added to a 250 ml glass bottle and the bottles were placed on a rolling table to coat the inner surfaces as the solvent evaporated. Once dry, twenty five non-blood fed adult female mosquitoes of the appropriate species and strains (each three day old) were aspirated from the stock culture and gently blown into the exposure bottles. The lid of the bottle was replaced and the bottle placed upright out of direct sun light under standard culture conditions, nominally 28C and 60-80% relative humidity.
# (§10) A stopwatch was started, and the assessment of the knock-down were made after 15 minutes and 60 minutes. A mosquito was said to be knocked down if it was unable to stand, following the CDC definition. The bottles were replaced in an upright position when not being assessed.
# (§11) After one hour the mosquitoes were carefully removed from the bottle with an aspirator and placed in a recovery cup. The mosquitoes were supplied with a 10% sucrose solution on a cotton wool bung, and stored under culture conditions. Assessments of the mortality were made after 24 hours.
# (§12) Each treatment was replicated a minimum of four times, with the mean knockdown or mortality recorded. In each study, a set of bottles was infested with a known insecticide susceptible strain of mosquitoes from the same genera as the resistant strains.
# [13] = test system: An. Gambiae Tiassalé; experiment: as above; format: in vivo
# Experimental: as §9, §10, §11, §12
# [14] = test system: An. stephensi; experiment: as above; format: in vivo
# Experimental: as §9, §10, §11, §12
# [15] = test system: Anopheles stephensi (Indian malaria mosquito); experiment: whole plant or invertebrate; conditions: Anopheles stephensi
# Experimental: […] Once the deposits were dry, five non-blood fed adult female Anopheles stephensi (between two to five days old) were added to each well, and sustained with a 10% sucrose solution in a cotton wool plug. Assessment of the knockdown after 1 hour, and mortality after 48 hours was carried out.
# as §1
# [16] = test system: Anopheles stephensi; experiment: whole plant or invertebrate; conditions: Anopheles stephensi, 48 h
# Experimental: (§13) The individual wells of six (6) well tissue culture plates were treated with 250 μl of an ethanol solution containing a test compound at a defined concentration. Once the deposits were dry, ten non-blood fed adult female Aedes aegypti or Anopheles stephensi (each between two to five day old) were added to each well, and sustained with a 10% sucrose solution in a cotton wool plug.
# (§14) Assessment of the mortality was carried out at 48 hours.
# (§15) Each treatment was replicated twice, with the mean mortality recorded.
# [17] = test system: Aedes aegypti; experiment: whole plant or invertebrate; conditions: Aedes aegypti, 48 h
# Experimental: as §13, §14, §15
compound,measurement,setting,value
"CO/C=C(/C(=O)OC)c1ccccc1Oc1nnc(C(F)(F)F)s1 [Compound 6, Methyl (E)-3-methoxy-2-[2-[[5-(trifluoromethyl)-1,3,4-thiadiazol-2-yl]oxy]phenyl]-prop-2-enoate]",pest or weed control at 20 ppm,"[1]; 1 h, read-out: Knockdown",100%
same,mortality at 20 ppm,[1]; 48 h,100%
same,Knockdown,"[2]; 2.00 ppm, after 60 minutes, Caymon",5%
same,mortality at 2 ppm,"[2]; Aedes aegypti, 24 h",63%
same,Knockdown,"[3]; 2.00 ppm, after 60 minutes, Kisumu sus",86%
same,mortality at 2 ppm,"[3]; Anopheles gambiae, 24 h",100%
same,Knockdown,"[4]; 2.00 ppm, after 60 minutes, New Orleans",95%
same,mortality at 2 ppm,"[4]; Aedes aegypti, 24 h",100%
same,Knockdown,"[5]; 2.00 ppm, after 60 minutes, Ndjamina",100%
same,mortality at 2 ppm,"[5]; Anopheles arabiensis, 24 h",100%
same,Knockdown,"[6]; 2.00 ppm, after 60 minutes, Kisumu rdl",78%
same,mortality at 2 ppm,"[6]; Anopheles gambiae, 24 h",89%
same,Knockdown,"[7]; 2.00 ppm, after 60 minutes, Moz sus",90%
same,mortality at 2 ppm,"[7]; Anopheles arabiensis, 24 h",100%
same,Knockdown,"[8]; 2.00 ppm, after 60 minutes, Tiassalé",84%
same,mortality at 2 ppm,"[8]; Anopheles gambiae, 24 h",94%
same,Knockdown,"[9]; 2.00 ppm, after 60 minutes, An. stephensi",100%
same,mortality at 2 ppm,"[9]; Anopheles stephensi, 24 h",100%
same,knock-down,"[10]; HDPE, polymer 4 to 6 weeks old",87%
same,knock-down,"[10]; HDPE, polymer 6 to 8 weeks old",100%
same,knock-down,"[10]; LDPE, polymer 4 to 6 weeks old",97%
same,knock-down,"[10]; LDPE, polymer 6 to 8 weeks old",100%
same,knock-down,"[10]; PP, polymer 4 to 6 weeks old",100%
same,knock-down,"[10]; PP, polymer 6 to 8 weeks old",90%
same,knock-down,[11]; HDPE,87%
same,knock-down,[11]; LDPE,100%
same,knock-down,[11]; PP,83%
same,Knockdown (%) at 15 mins,"[12]; 20 ppm, bottle, Kisumu sus",100%
same,Knockdown (%) at 60 mins,"[12]; 20 ppm, bottle, Kisumu sus",100%
same,mortality at 20 ppm,[12]; Anopheles gambiae,100%
same,Knockdown (%) at 15 mins,"[13]; 20 ppm, bottle, Tiassalé",93%
same,Knockdown (%) at 60 mins,"[13]; 20 ppm, bottle, Tiassalé",98%
same,mortality at 20 ppm,[13]; Anopheles gambiae,91%
same,Knockdown (%) at 15 mins,"[14]; 20 ppm, bottle, An. stephensi",83%
same,Knockdown (%) at 60 mins,"[14]; 20 ppm, bottle, An. stephensi",100%
same,mortality at 20 ppm,[14]; Anopheles stephensi,100%
same,pest or weed control at 20 ppm,"[15]; 1 h, read-out: Knockdown",100%
same,mortality at 20 ppm,[15]; 48 h,100%
same,mortality at 5 ppm,[16],98%
same,mortality at 5 ppm,[17],66%
